Laboratory results reported in patent US20160068843A1 (priority 2012, published 2016).

Tested on: H1N1 strain (A/California/07/09 (H1N1)pdm09)
Design: species or system mice
Details: mouse, in vivo

SMILES: CCOC(=O)C1=C[C@@H](OC(CC)CC)[C@H](NC(C)=O)[C@@H](N)C1 [Tamiflu]
- survival compared with siRNA combination: equivalent
